# Assays:
# [1] = Chemical stability of conjugate 8 in 0.1 N NaOH; assay type: physicochemical; conditions: room temperature, 24 hours
# [2] = Uptake and release of radiolabelled conjugate 8, tritium levels in long bones; assay type: in vivo, female Sprauge-Dawley rats; conditions: rat, 5 mg/kg intravenous
# Experimental: Uptake and Release of Conjugate 8: A solution was prepared of carbamate conjugate 8 (specific activity=15.4 mCi/mmol) in PBS. The conjugate was administered intravenously to female Sprauge-Dawley rats at 5 mg/kg. Triplicate sets of rats were euthanized at 1, 7, 14 and 28 days and tritium levels in bone were measured by incineration of the long bones in a biological oxidizer. After an initial 1 day uptake of 9.4%, 5.6% of the initial dose remained after 14 days.
structure (smiles),measurement,setting,value
CCOC(=O)CCCCCCN1C(=O)CC[C@@H]1/C=C/[C@@H](OC(=O)NCCCC(O)(P(=O)(O)O)P(=O)(O)O)C(F)(F)c1ccccc1 [Conjugate 8],hydrolysis of the carbamate coupling,[1],not hydrolyzed
same,hydrolysis of the ethyl ester,[1],essentially quantitatively
same,% of Initial 3H Dose Remaining,[2]; 1 day,9.4%
same,% of Initial 3H Dose Remaining,[2]; 7 days,8.0%
same,% of Initial 3H Dose Remaining,"[2]; 14 days, 5 mg/kg",6.2%
same,% of Initial 3H Dose Remaining,[2]; 28 days,5.6%

# Source: patent US9611284B2, “Prostaglandin-bisphosphonate conjugate compounds, methods of making same, and uses thereof” (Simon Fraser University, priority 2010, dated 2017)
